Laboratory results reported in patent US20070265211A1, “Novel composition and method effective in inhibiting the atherogenic process” (priority 2006, published 2007).

How the values were obtained:
[1] = tested on: vascular smooth muscle cells (VSMC) from guinea-pig aorta; settings: 0.5-2.0 mM ascorbate; direct and matrix-mediated effects; cited from earlier work
[2] = tested on: Human aortic smooth muscle cells; assay: SMC proliferation by [3H]-thymidine incorporation into cellular DNA; assay type: cell-based; settings: physiologically relevant concentration
Procedure: Human aortic smooth muscle cells (SMC, obtained from Clonetics) were cultured in DMEM (Dulbecco's modified Eagle's medium), supplemented with 10% fetal bovine serum, penicillin (100 μg/ml) and streptomycin (100 μg/ml) at 37° C. in a humidified atmosphere containing 5% CO2, and were split 1:3 to 1:5 upon reaching the confluence. SMC at passages 5-8 were used in experiments. […] SMC proliferation was assayed by [3H]-thymidine incorporation into cellular genetic material. Cells were plated in 24-well plates at a density of 10,000 cells per cm^2 in 0.5 ml of DMEM supplemented with 2% FBS. The attached cells were supplied every 24 hours with fresh growth medium plus additions, as specified in the protocols. Test agents included the nutrient mixture and individual components. […] Cell proliferation was measured 3 days later by the addition of 1 pCi/ml [3H]-thymidine to the cell culture for the last 4 hours of the experiment. […] Samples were mixed with scintillation fluid and counted using a liquid scintillation counter (model 6500 LS, Beckman Instruments, USA). Cellular DNA-incorporated radioactivity was expressed as d/min per well. In some wells cells were stained with Hematoxylin/Eosin and cell nucleus were counted under microscope in standard way chosen views covering total 65% of the well area. Cell counting data expressed as cell number per well.

Compound	Proliferation of VSMC from guinea-pig aorta [1]	Cultured human aortic SMC growth rate (rate of cellular DNA synthesis) [2]
O=C1O[C@H]([C@@H](O)CO)C(O)=C1O [ascorbate, ascorbic acid]	dose-dependent decreased proliferation	–
O=C(O[C@@H]1Cc2c(O)cc(O)cc2O[C@@H]1c1cc(O)c(O)c(O)c1)c1cc(O)c(O)c(O)c1 [epigallocatechin gallate]	–	significantly reduced
